Assay results reported in BindingDB's records for doi:10.1111/j.1476-5381.1996.tb15208.x (Smithkline Beecham Pharmaceuticals, 1996).

Experiments:
[1] = molecular target: 5-hydroxytryptamine receptor 2A (Homo sapiens, UniProt P28223)
[2] = molecular target: Gamma-aminobutyric acid receptor subunit alpha-1 (Rattus norvegicus, UniProt P62813)
[3] = molecular target: 5-hydroxytryptamine receptor 1D (Cavia porcellus, UniProt Q60484)
[4] = molecular target: 5-hydroxytryptamine receptor 1E (Homo sapiens, UniProt P28566)
Chain of 5-hydroxytryptamine receptor 1E (P28566 whole entry): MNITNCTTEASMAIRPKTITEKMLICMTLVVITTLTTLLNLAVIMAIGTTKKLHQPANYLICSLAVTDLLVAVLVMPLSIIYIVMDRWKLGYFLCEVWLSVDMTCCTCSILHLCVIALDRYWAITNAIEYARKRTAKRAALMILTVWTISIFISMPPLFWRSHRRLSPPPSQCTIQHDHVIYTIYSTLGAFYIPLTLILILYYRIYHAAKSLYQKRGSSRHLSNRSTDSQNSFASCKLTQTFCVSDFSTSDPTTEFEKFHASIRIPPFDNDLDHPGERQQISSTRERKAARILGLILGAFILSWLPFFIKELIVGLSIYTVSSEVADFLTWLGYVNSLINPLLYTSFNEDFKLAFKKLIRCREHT

[5] = molecular target: 5-hydroxytryptamine receptor 7 (Homo sapiens, UniProt P34969)
Chain of 5-hydroxytryptamine receptor 7 (P34969 whole entry): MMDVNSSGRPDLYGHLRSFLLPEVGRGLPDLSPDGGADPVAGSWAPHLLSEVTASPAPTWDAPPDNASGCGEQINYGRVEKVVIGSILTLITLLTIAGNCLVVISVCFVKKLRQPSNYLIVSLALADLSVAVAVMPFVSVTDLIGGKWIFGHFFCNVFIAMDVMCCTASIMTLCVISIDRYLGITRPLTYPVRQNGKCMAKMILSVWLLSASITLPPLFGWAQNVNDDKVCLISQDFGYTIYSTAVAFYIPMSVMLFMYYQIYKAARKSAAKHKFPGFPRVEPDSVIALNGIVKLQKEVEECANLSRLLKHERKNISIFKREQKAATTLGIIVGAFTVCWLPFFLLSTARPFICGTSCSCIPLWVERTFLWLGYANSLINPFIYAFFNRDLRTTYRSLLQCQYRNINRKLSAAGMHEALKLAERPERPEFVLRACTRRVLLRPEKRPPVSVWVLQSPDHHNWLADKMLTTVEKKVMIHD

[6] = molecular target: D(2) dopamine receptor (Homo sapiens, UniProt P14416)
Chain of D(2) dopamine receptor (P14416 whole entry): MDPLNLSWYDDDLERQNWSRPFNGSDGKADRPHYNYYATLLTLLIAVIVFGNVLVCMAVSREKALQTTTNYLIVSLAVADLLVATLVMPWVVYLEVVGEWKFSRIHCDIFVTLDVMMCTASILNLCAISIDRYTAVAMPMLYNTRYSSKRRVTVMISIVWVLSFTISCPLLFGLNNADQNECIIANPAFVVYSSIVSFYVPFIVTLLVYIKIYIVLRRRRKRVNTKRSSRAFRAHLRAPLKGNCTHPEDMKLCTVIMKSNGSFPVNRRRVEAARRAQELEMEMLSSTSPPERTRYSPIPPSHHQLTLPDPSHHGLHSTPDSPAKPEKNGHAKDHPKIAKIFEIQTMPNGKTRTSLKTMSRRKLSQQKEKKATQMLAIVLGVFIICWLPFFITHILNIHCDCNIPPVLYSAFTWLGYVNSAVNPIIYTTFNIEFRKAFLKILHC

[7] = molecular target: T1, Adenosine receptor A1 (Rattus norvegicus, UniProt P25099)
T1 sequence (P25099 whole entry): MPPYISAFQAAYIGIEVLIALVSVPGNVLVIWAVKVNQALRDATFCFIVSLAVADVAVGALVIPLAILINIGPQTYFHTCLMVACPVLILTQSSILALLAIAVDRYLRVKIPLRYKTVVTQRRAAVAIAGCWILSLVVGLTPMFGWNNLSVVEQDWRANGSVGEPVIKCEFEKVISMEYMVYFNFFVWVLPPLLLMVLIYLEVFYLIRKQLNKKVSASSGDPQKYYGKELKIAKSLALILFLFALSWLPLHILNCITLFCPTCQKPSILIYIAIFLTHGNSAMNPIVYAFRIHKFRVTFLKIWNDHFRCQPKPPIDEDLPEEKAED

[8] = molecular target: T2, 5-hydroxytryptamine receptor 1F (Homo sapiens, UniProt P30939)
T2 sequence (P30939 whole entry): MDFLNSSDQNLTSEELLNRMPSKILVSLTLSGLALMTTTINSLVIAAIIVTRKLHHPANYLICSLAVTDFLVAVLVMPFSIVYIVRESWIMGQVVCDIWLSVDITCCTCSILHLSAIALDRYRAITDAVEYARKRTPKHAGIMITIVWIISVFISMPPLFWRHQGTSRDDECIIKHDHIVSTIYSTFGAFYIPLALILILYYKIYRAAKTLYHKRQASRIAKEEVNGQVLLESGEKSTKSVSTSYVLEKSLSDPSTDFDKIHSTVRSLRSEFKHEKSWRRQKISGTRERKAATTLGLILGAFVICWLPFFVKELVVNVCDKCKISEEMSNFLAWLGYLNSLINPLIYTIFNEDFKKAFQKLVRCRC

[9] = molecular target: 5-hydroxytryptamine receptor 2B (Rattus norvegicus, UniProt P30994)
Chain of 5-hydroxytryptamine receptor 2B (P30994 whole entry): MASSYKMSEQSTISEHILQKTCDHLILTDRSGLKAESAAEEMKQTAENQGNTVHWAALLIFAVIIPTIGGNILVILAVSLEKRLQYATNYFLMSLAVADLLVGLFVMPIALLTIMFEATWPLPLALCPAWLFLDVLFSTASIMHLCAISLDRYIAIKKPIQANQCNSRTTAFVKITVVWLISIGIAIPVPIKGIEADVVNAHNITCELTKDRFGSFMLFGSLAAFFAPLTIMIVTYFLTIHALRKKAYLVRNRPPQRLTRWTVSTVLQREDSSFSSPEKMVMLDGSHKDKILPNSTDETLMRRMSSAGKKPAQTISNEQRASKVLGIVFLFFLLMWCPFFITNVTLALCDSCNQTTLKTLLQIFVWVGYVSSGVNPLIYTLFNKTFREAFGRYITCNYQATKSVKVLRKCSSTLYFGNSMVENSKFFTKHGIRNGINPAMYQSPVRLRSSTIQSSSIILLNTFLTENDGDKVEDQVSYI

[10] = molecular target: D(3) dopamine receptor (Homo sapiens, UniProt P35462)
Chain of D(3) dopamine receptor (P35462 as listed by the source): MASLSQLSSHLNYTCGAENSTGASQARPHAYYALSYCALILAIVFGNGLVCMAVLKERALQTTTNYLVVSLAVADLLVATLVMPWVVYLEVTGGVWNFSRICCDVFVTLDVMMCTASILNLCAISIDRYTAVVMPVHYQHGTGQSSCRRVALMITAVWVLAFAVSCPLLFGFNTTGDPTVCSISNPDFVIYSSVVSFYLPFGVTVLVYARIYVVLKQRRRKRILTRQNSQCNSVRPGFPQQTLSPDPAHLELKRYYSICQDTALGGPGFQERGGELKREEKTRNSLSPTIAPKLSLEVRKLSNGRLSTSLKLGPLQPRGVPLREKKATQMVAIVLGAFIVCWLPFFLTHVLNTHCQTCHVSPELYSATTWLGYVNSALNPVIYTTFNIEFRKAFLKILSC

[11] = molecular target: T3, Alpha-1A adrenergic receptor (Rattus norvegicus, UniProt P43140)
T3 sequence (P43140 whole entry): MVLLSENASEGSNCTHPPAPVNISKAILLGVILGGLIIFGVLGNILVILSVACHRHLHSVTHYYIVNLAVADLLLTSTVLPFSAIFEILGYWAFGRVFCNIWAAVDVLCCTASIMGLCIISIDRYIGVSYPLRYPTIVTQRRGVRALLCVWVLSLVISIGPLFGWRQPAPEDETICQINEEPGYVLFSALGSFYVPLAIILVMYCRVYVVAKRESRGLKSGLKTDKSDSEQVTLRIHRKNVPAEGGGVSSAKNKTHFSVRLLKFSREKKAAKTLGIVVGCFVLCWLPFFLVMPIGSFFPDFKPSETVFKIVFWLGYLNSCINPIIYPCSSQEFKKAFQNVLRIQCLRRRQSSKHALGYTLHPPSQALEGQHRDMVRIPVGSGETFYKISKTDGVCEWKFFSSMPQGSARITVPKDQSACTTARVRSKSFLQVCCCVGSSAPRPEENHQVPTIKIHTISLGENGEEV

[12] = molecular target: T4, 5-hydroxytryptamine receptor 3A (Rattus norvegicus, UniProt P35563)
T4 sequence (P35563 whole entry): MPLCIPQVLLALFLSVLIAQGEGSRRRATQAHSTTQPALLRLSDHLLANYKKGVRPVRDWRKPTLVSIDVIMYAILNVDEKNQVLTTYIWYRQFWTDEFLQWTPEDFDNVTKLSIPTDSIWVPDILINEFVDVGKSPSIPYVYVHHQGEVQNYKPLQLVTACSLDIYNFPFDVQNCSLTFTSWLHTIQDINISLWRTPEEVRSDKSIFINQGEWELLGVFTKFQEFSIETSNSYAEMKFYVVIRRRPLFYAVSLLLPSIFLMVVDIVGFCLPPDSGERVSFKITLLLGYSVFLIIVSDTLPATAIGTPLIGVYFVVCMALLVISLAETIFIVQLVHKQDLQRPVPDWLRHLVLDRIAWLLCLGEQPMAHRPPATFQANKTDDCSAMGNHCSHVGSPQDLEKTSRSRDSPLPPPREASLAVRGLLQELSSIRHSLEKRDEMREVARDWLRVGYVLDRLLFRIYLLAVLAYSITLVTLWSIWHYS

[13] = molecular target: Histamine H1 receptor (Cavia porcellus, UniProt P31389)
Chain of Histamine H1 receptor (P31389 whole entry): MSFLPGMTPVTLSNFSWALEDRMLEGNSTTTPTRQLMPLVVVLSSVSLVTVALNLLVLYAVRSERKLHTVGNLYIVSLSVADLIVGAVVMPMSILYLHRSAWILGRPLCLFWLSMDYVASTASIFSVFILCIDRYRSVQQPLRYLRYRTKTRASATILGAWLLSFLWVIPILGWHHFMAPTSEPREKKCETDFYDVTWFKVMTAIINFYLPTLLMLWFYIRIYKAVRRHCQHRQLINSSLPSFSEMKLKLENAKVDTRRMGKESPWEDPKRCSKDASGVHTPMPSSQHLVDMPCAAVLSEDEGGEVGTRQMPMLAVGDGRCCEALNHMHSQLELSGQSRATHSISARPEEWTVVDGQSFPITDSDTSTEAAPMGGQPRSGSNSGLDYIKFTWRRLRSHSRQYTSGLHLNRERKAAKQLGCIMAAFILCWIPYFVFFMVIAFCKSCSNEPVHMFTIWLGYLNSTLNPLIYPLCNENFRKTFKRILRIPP

[14] = molecular target: T5, D(4) dopamine receptor (Homo sapiens, UniProt P21917)
T5 sequence (P21917 whole entry): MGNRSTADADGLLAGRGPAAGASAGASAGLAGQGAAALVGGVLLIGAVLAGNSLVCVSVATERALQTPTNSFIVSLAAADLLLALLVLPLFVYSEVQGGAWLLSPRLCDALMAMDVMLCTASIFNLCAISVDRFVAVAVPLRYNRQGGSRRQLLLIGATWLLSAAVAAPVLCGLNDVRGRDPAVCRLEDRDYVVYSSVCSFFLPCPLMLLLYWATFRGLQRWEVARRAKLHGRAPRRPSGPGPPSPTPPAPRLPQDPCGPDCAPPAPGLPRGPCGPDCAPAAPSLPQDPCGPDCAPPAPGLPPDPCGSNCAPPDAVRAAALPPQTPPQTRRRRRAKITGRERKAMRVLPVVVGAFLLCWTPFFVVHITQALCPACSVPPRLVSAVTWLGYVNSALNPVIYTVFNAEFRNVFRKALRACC

Chain of 5-hydroxytryptamine receptor 2A (P28223 whole entry): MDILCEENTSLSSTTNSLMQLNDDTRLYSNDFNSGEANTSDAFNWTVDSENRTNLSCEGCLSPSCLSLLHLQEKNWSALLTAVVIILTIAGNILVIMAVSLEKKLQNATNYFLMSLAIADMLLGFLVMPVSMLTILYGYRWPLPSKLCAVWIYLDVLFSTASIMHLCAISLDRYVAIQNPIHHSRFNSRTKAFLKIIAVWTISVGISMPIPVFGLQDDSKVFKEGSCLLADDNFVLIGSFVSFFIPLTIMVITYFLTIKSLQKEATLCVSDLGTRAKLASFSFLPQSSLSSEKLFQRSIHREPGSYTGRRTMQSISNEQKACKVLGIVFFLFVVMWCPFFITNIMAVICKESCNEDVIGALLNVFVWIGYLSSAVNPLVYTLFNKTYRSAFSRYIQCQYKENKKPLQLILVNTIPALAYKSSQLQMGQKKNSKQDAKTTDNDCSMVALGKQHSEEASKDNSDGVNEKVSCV
Chain of 5-hydroxytryptamine receptor 1D (Q60484 whole entry): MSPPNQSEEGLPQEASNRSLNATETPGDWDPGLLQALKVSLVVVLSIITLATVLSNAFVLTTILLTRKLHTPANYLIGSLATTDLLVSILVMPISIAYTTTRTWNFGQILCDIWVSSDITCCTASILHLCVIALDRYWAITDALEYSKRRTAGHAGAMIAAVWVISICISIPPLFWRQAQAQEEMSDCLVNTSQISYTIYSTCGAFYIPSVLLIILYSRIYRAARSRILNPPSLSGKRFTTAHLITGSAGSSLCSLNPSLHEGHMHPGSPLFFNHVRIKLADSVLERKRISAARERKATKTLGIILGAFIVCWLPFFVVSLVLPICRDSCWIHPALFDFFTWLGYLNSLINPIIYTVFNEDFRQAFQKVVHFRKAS
Chain of Gamma-aminobutyric acid receptor subunit alpha-1 (P62813 whole entry): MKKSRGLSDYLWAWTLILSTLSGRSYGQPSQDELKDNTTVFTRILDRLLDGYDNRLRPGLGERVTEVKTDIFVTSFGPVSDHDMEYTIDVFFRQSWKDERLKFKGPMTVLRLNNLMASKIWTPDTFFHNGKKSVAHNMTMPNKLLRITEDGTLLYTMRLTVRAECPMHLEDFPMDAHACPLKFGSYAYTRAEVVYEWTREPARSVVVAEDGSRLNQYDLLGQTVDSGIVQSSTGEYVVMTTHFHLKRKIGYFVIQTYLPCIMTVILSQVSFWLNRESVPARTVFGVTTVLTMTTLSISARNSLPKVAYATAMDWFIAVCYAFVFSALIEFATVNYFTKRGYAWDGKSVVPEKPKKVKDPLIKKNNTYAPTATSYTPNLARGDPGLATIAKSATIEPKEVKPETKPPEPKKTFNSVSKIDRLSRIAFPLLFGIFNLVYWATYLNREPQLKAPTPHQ

Cn1ccc2cc3c(cc21)CCN3C(=O)Nc1cccnc1
Ki [1]: 1.66 µM
Ki [2]: > 10 µM
Ki [3]: 1 µM
Ki [4]: 5.01 µM
Ki [5]: 1 µM
Ki [6]: > 10 µM
Ki [7]: > 10 µM
Ki [8]: 5.01 µM
Ki [9]: 0.00129 µM
Ki [10]: > 10 µM
Ki [11]: > 10 µM
Ki [12]: > 10 µM
Ki [13]: > 10 µM
Ki [14]: > 10 µM
